According to US20230158025A1 (UNIVERSITY OF UTAH RESEARCH FOUNDATION, priority 2020, published 2023):
Where two headings read alike, the source gives them in different places.

Columns and labels:
[1] = PAMPA permeability
[2] = target: recombinant mouse GALK1 (Mus musculus, UniProt Q9R0N0); assay: mGALK1 biochemical activity assay (Kinase-Glo Plus, ATP depletion)
Method in brief: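 Recombinant GALK1 (5 nM) with 100 μM galactose; GALK1 turnover read as ATP depletion by Kinase-Glo Plus luminescence. Reaction ran 1 h at room temperature before detection reagent was added.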

[3] = aqueous kinetic solubility
[4] = target: recombinant human GALK1 (Homo sapiens, UniProt P51570); assay: hGALK1 biochemical activity assay (Kinase-Glo Plus, ATP depletion)
Method in brief: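 Turnover is measured as ATP depletion by Kinase-Glo Plus luminescence after a 1 h room-temperature reaction. Compounds span 11 concentrations, 57.4 μM–0.97 nM, in final 20 mM HEPES pH 8.0 with 5 mM MgCl2. The substrate solution held 35 μM ATP; the added solution held 5 nM human or mouse GALK1 and 100 μM galactose.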

[5] = rat microsomal stability (RLM)
[6] = recombinant mouse GALK1, Kinase-Glo Plus ATP depletion, read-out: mGALK
[7] = recombinant human GALK1, Kinase-Glo Plus ATP depletion, read-out: hGALK
[8] = Tables 2-15, 35 μM ATP, 100 μM galactose, 1 h, bracketed figure after some values is undefined and not reported, read-out: mGALK IC50
[9] = Tables 2-15, 35 μM ATP, 100 μM galactose, 1 h, bracketed figure after some values (e.g. −1.2) is undefined and not reported, read-out: hGALK IC50
[10] = recombinant mouse GALK1, Kinase-Glo Plus ATP depletion, bracketed figure in the cell, e.g. (−1.2), is not defined in the text shown, read-out: mGALK
[11] = recombinant human GALK1, Kinase-Glo Plus ATP depletion, bracketed figure in the cell, e.g. (−1.2), is not defined in the text shown, read-out: hGALK
[12] = microsomal stability half-life, minutes
[13] = recombinant mouse GALK1, Kinase-Glo Plus ATP depletion

recombinant human GALK1, sequence (P51570 whole entry): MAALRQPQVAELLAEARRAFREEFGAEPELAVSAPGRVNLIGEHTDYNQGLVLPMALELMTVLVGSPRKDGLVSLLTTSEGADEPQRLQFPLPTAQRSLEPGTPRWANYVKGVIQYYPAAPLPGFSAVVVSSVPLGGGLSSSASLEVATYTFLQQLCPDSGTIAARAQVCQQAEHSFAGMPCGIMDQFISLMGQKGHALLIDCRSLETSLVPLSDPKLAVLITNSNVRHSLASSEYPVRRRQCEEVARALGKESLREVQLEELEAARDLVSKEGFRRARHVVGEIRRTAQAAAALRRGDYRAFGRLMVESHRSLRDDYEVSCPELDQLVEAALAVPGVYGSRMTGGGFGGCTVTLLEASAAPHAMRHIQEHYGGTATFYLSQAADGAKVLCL
recombinant mouse GALK1, sequence (Q9R0N0 whole entry): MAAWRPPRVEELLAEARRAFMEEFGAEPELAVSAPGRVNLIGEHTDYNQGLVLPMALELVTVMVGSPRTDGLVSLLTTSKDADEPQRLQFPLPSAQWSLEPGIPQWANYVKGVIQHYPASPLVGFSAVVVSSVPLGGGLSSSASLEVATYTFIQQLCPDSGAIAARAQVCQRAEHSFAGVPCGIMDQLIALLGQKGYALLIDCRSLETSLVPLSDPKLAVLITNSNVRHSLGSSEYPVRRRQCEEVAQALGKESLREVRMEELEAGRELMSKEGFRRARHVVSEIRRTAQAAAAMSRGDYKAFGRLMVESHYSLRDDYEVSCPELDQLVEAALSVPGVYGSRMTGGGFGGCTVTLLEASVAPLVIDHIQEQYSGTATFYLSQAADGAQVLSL

Row | SMILES | Perm. (1 × 10^−6 cm/sec) ([1]; PAMPA) | IC50 [2, 6] [µM] | Sol. ([3]; aqueous kinetic solubility) [µg/mL] | IC50 [4, 7] [µM] | Metab. Stabil. (m) ([5]; microsomal stability half-life) | Perm. (1 × 10^−6 cm/sec) [1] | IC50 [2, 8] [µM] | Sol. [3] [µg/mL] | IC50 [4, 9] [µM] | Metab. Stabil. (m) ([5]; microsomal half-life) | IC50 [2, 10] [µM] | IC50 [4, 11] [µM] | Metab. Stabil. (m) [5, 12] [m] | mGALK (μM) [2, 13] | mGALK IC50 ([2]; Tables 2-15, 35 μM ATP, 100 μM galactose, 1 h, bracketed figure after some values is undefined and not reported)
1 | CC1=C(C(=O)NCc2cnn(C)c2)C(c2ccc(F)cc2Cl)N=C(Nc2nc3cccc(N)c3o2)N1 (centres unmarked) [Compound 119, 2-((7-aminobenzo[d]oxazol-2-yl)amino)-4-(2-chloro-4-fluorophenyl)-N-((1-methyl-1H-pyrazol-4-yl)methyl)-6-methyl-1,4-dihydropyrimidine-5-carboxamide] | 17.14 1 × 10^−6 cm/sec | 6.85 | 49.6 | 0.68 | 29.59 | – | – | – | – | – | – | – | – | – | –
2 | CC1=C(C(=O)NCc2cnn(C)c2)C(c2ccc(C)cc2Cl)N=C(Nc2nc3cnccc3o2)N1 (centres unmarked) [Compound 104, 4-(2-chloro-4-methylphenyl)-6-methyl-N-((1-methyl-1H-pyrazol-4-yl)methyl)-2-(oxazolo[4,5-c]pyridin-2-ylamino)-1,4-dihydropyrimidine-5-carboxamide] | – | 12.2 | – | 3.06 | – | 127.62 1 × 10^−6 cm/sec | 12.2 | >49 | 3.06 | 5.12 | – | – | – | – | –
3 | CC1=C(C(=O)Nc2nncs2)C(c2ccncc2Br)N=C(Nc2nc3ccccc3o2)N1 (centres unmarked) [Compound 255, 2-(benzo[d]oxazol-2-ylamino)-4-(3-bromopyridin-4-yl)-6-methyl-N-(1,3,4-thiadiazol-2-yl)-1,4-dihydropyrimidine-5-carboxamide] | 208.7 1 × 10^−6 cm/sec | – | 6.5 | – | – | – | – | – | – | – | 19.3 | 3.43 | >30 | – | –
4 | COC(=O)Cc1cccc(NC(=O)C2=C(C)NC(Nc3nc4ccccc4o3)=NC2c2ccccc2Cl)c1 (centres unmarked) [Compound 176, methyl 2-(3-(2-(benzo[d]oxazol-2-ylamino)-4-(2-chlorophenyl)-6-methyl-1,4-dihydropyrimidine-5-carboxamido)phenyl)acetate] | <17.4 1 × 10^−6 cm/sec | 13.7 | <1 | 10.9 | 10.34 | – | 13.7 | – | 10.9 | – | – | – | – | – | –
5 | CC1=C(C(=O)Nc2cc(C(=O)O)ccn2)C(c2ccc(C)cc2Cl)N=C(Nc2nc3c(o2)CCCC3)N1 (centres unmarked) [Compound 109, 2-(4-(2-chloro-4-methylphenyl)-6-methyl-2-((4,5,6,7-tetrahydrobenzo[d]oxazol-2-yl)amino)-1,4-dihydropyrimidine-5-carboxamido)isonicotinic acid] | – | 4.32 | – | 3.06 | – | <1.8 1 × 10^−6 cm/sec | 4.32 | >52 | 3.06 | >30 | – | – | – | – | –
6 | CCn1nc(C)c(CNC(=O)C2=C(C)NC(Nc3nc4ccc(F)c(N)c4o3)=NC2c2ccc(C)cc2Cl)c1F (centres unmarked) [Compound 129, 2-((7-amino-6-fluorobenzo[d]oxazol-2-yl)amino)-4-(2-chloro-4-methylphenyl)-N-((1-ethyl-5-fluoro-3-methyl-1H-pyrazol-4-yl)methyl)-6-methyl-1,4-dihydropyrimidine-5-carboxamide] | 187.9 1 × 10^−6 cm/sec | 2.17 | 1.53 | 0.43 | 3.55 | – | 2.17 | – | 0.43 | – | – | – | – | – | –
7 | CC1=C(C(=O)Nc2nnc(-c3cccnc3)s2)C(c2ccccc2Cl)N=C(Nc2nc3ccc(Cl)cc3o2)N1 (centres unmarked) [Compound 94, 2-((6-chlorobenzo[d]oxazol-2-yl)amino)-4-(2-chlorophenyl)-6-methyl-N-(5-(pyridin-3-yl)-1,3,4-thiadiazol-2-yl)-1,4-dihydropyrimidine-5-carboxamide] | – | – | – | 27.3 | – | <10.3 1 × 10^−6 cm/sec | – | <1 | – | >30 | – | – | – | in- active | –
8 | CC1=C(C(=O)Nc2nncs2)C(c2ccccc2C(F)(F)F)N=C(Nc2nc3ccccc3o2)N1 (centres unmarked) [Compound 263, 2-(benzo[d]oxazol-2-ylamino)-6-methyl-N-(1,3,4-thiadiazol-2-yl)-4-(2-(trifluoromethyl)phenyl)-1,4-dihydropyrimidine-5-carboxamide] | 29.8 1 × 10^−6 cm/sec | – | <1 | – | – | – | – | – | – | – | 12.2 | 6.85 | >30 | – | –
9 | CC1=C(C(=O)Nc2cc(C(=O)O)ccn2)[C@@H](c2ccccc2Cl)N=C(Nc2nc3cccc(N)c3o2)N1 [Compound 25, (S)-2-(2-((7-aminobenzo[d]oxazol-2-yl)amino)-4-(2-chlorophenyl)-6-methyl-1,4-dihydropyrimidine-5-carboxamido)isonicotinic acid] | – | 34.3 | – | 6.11 | – | <1.3 1 × 10^−6 cm/sec | 34.3 | >76 | 6.11 | >30 | – | – | – | – | –
10 | CC1=C(C(=O)Nc2cc(C(=O)O)ccn2)[C@H](c2ccccc2Cl)N=C(Nc2nc3ccc(F)cc3o2)N1 [Compound 19, (R)-2-(4-(2-chlorophenyl)-2-((6-fluorobenzo[d]oxazol-2-yl)amino)-6-methyl-1,4-dihydropyrimidine-5-carboxamido)isonicotinic acid] | – | 1.72 | – | 0.24 | – | <1 1 × 10^−6 cm/sec | 1.72 | 55.6 | 0.24 | >30 | – | – | – | – | –
11 | CC1=C(C(=O)Nc2cc(C(=O)O)ccn2)[C@@H](c2ccc(C)cc2Cl)N=C(Nc2nc3cccc(N)c3o2)N1 [Compound 84, (S)-2-(2-((7-aminobenzo[d]oxazol-2-yl)amino)-4-(2-chloro-4-methylphenyl)-6-methyl-1,4-dihydropyrimidine-5-carboxamido)isonicotinic acid] | – | 21.7 | – | 3.43 | – | <1 1 × 10^−6 cm/sec | 21.7 | >78 | 3.43 | >30 | – | – | – | – | –
12 | CC1=C(C(=O)Nc2ccccc2Cl)C(c2ccccc2Cl)N=C(Nc2nc3ccccc3o2)N1 (centres unmarked) [Compound 140, 2-(benzo[d]oxazol-2-ylamino)-N,4-bis(2-chlorophenyl)-6-methyl-1,4-dihydropyrimidine-5-carboxamide] | 56.0 1 × 10^−6 cm/sec | – | <1 | – | 28.74 | – | – | – | 4.32 | – | – | – | – | in- active | inactive
13 | CC1=C(C(=O)Nc2ccc(F)cc2)C(c2ccccc2Cl)N=C(Nc2nc3ccccc3o2)N1 (centres unmarked) [Compound 148, 2-(benzo[d]oxazol-2-ylamino)-N-(4-fluorophenyl)-4-(2-chlorophenyl)-6-methyl-1,4-dihydropyrimidine-5-carboxamide] | 29.4 1 × 10^−6 cm/sec | 12.2 | <1 | – | >30 | – | 12.2 | – | 7.69 | – | – | – | – | – | –
14 | CC1=C(C(=O)Nc2nncs2)C(c2n[nH]cc2Br)N=C(Nc2nc3ccccc3o2)N1 (centres unmarked) [Compound 268, 2-(benzo[d]oxazol-2-ylamino)-4-(4-bromo-1H-pyrazol-3-yl)-6-methyl-N-(1,3,4-thiadiazol-2-yl)-1,4-dihydropyrimidine-5-carboxamide] | 27.4 1 × 10^−6 cm/sec | – | 11.4 | – | – | – | – | – | – | – | 19.3 | 7.69 | >30 | – | –
